Source: patent US9497963B2, “Methods and compositions for control of gypsy moth, Lymantria dispar” (Simon Fraser University, priority 2008, dated 2016)
Marks after values point to notes of the source that are not given here.

Experiments:
male gypsy moth antenna = assay: Coupled gas chromatographic-electroantennographic detection (GC-EAD); design: species or system Lymantria dispar; conditions: EAD peak size and shape (sharp/broad)
From the text: In GC-EAD assays, the analyte is processed by gas chromatography (GC). The column effluent is split, such that molecules of each chromatographic peak arrive simultaneously at the flame ionization detector of the GC and at an anectomized but otherwise intact insect antenna as the biological detector. This procedure detects specific compounds in the analyte that elicit an electrical potential from the antenna.
For GC-EAD recordings, an antenna was carefully dislodged from a male moth's head, and the antennal base placed into the opening of a glass capillary electrode (0.58 mm ID×65 mm length) (A-M Systems, Inc., Carlsborg, Wash., USA) filled with saline solution. The tip of the antenna was removed by spring microscissors (Fine Science Tools Inc., North Vancouver, British Columbia, Canada) and then placed into the opening of the recording electrode mounted on a portable micromanipulator and positioned in front of a constant stream of warm air (Praxair Canada Inc., Mississauga, Ontario, Canada) which delivered the GC column eluent. […] Identical retention times of compounds detected by the flame ionization detector of the GC and by the insect antenna allowed assignment of antennal responses to specific compounds in the eluent.

[1] = tested on: male gypsy moth antenna response to pheromone (+)-1; assay: EAG short-term (STI) and long-term (LTI) inhibition of pheromone signaling (Example 5); design: species or system Lymantria dispar; conditions: for Activity (%): short-term inhibition (STI) / inhibition at 0.001 mg / inhibition at 0.01 mg / inhibition at 0.1 mg: negative = enhancement; for Activity (%): short-term inhibition (STI) / Activity (%): long-term inhibition (LTI) / inhibition at 0.001 mg / inhibition at 0.01 mg / inhibition at 0.1 mg / inhibition at 100 µg, 0.1 mg: mean ± S.E.; for Activity (%): long-term inhibition (LTI) / inhibition at 100 µg, 0.1 mg: pure (+)-1 100 ng plume following mixed plume with 100 μg compound; for inhibition at 0.001 mg / inhibition at 0.01 mg / inhibition at 0.1 mg / inhibition at 100 µg, 0.1 mg: Lymantria dispar; for inhibition at 0.001 mg / inhibition at 0.01 mg / inhibition at 0.1 mg: read-out: Activity (%): short-term inhibition (STI); for inhibition at 100 µg, 0.1 mg: read-out: Activity (%): long-term inhibition (LTI)
Procedure: The puffs are numbered i-vi and were: i=air, ii=pure pheromone (+)-disparlure, (+)-1, (100 ng), iii-v=disparlure mixed with the test compound, the latter at three different doses, vi=pure (+)-1. Depolarizations from the resting potential are labeled d; hyperpolarizations seen during the recovery phase after a puff are labeled r. Subscripts refer to the puff number. FIG. 5A. Typical trace for compound 3c{2,3}. FIG. 5B. Typical trace for compound 3a{4,4}.
For other compounds, EAG traces were recorded as follows: a fully dislodged antenna from a male gypsy moth was mounted on the end of a reference electrode (a glass capillary with a silver wire, filled with buffered saline: 5 mM NaH2PO4, 10 mM Na2SO4, 4.5 mM KHCO3, 18 mM MgCl2, 4 mM CaCl2, 6 mM KCl, the pH is adjusted to 6.8 using 5 mM Na2HPO4). The tip of the antenna was severed with microscissors and placed in the recording electrode, which was mounted on a micromanipulator. A constant stream of air, that had been purified (charcoal filter), was blown over the antenna at a rate of 300 mL/min. Test samples were delivered through a stimulus delivery tube with a side opening 2 cm from the distal opening. The proximal end of the delivery tube was connected to a controlled stimulus delivery apparatus (Stimulus controller CS-05 Syntech Research and Equipment, NL 1200BM, Hilversum, The Netherlands). The distal end of the delivery tube pointed at the antenna (1 cm from the antenna). The side opening was connected to a cartridge fashioned from a Pasteur pipette which contained a small filter paper (Whatman No. 1) with the stimulus. These pipette cartridges could be prepared a few days in advance and stored at −80° C. wrapped in Al foil and in sealable plastic bags. Sample cartridges were mounted once they had reached room temperature. The stimulus delivery apparatus delivered a second stream of air (a puff) through the Pasteur pipette at a velocity of 600 mL/min, at a specified point in time, for 0.3 s. Receptor potentials of the antennae in response to test stimuli were recorded with a Syntech IDAC probe, amplifier and interfaced board, and were analyzed with EAG Syntech Software Version 2.4 (1996). See FIG. 4 for a representative EAG trace. The EAG traces were evaluated as follows (see FIG. 5).
The net depolarizations, d(net) (in mV), of puffs ii-vi,d(sample), (corrected for the depolarization with clean air, d(air)) d(net)=d(sample)−d(air) (Eq. 1)
The percentage short-term inhibition for each compound (STI(compound)) of puffs iii-v, relative to the first pure pheromone puff (ii) STI(compound)=100×(d(net)(ii)−d(net)(compound))/d(net)(ii) (Eq. 2)
c) the percentage long-term inhibition for each compound (LTI(compound)) of the pure pheromone puff that followed the last mixed puff (vi) relative to the first pure pheromone puff (ii) LTI(compound)=100×(d(net)(ii)−d(net)(vi))/d(net)(ii) (Eq. 3)
The compounds we tested gave weak or no olfactory responses by themselves in electroantennogram (EAG) experiments. The EAG trace reflects the change in the potential across the antenna when an air puff with an odorant is passed over the antenna. To understand the agonistic or antagonistic effect of the compounds on pheromone responses by male moth antennae, four types of EAG experiment were conducted. First, the response of the antenna elicited by a stimulus of pure (+)-1 was compared to the responses elicited by blends of (+)-1 with the test compound (FIG. 5). […] This effect was termed short-term inhibition (STI). […] Second, the time decay and dose responses for LTI activities were studied. Third, the strongest inhibitors were tested for their ability to cause LTI by themselves.
This experiment explored the agonistic or antagonistic activity of the synthetic aromatic compounds (Scheme 1 and eugenol and alkyl eugenols) with the gypsy moth pheromone (+)-1. […]

[2] = mixed plume (+)-1 100 ng + compound 1 μg
[3] = mixed plume (+)-1 100 ng + compound 10 μg
[4] = mixed plume (+)-1 100 ng + compound 100 μg (puff v)

Row | Structure (SMILES) | GC-EAD activity (male gypsy moth antenna) | Activity (%): short-term inhibition (STI) [1, 2] | Activity (%): short-term inhibition (STI) [1, 3] | Activity (%): short-term inhibition (STI) [1, 4] | Activity (%): long-term inhibition (LTI) [1] | inhibition at 0.001 mg [1, 2] | inhibition at 0.01 mg [1, 3] | inhibition at 0.1 mg [1, 4] | inhibition at 100 µg, 0.1 mg [1] | short-term effect on antennal pheromone response (in words) [1] | long-term inhibition (LTI) activity (in words) [1]
1 | COc1ccccc1O [2a{1}] | None | 26 ± 14 (13)^e % | −27 ± 24 (13) % | 9 ± 11 (13) % | −13 ± 9 (13) % |  |  |  |  |  | 
2 | CCOc1ccccc1O [2a{2}, 2-Ethoxy phenol] | None |  |  |  |  | 42 ± 12% | 26 ± 12% | 58 ± 11% | 6 ± 4% |  | 
3 | CCCOc1ccccc1O [2a{3}, 2-Propoxy phenol] | None |  |  |  |  | -26 ± 14% | 32 ± 9% | 46 ± 13% | 18 ± 5% |  | 
4 | CCCCOc1ccccc1O [2a{4}, 2-Butoxy phenol] | None |  |  |  |  | 26 ± 12% | 21 ± 11% | 50% | 5 ± 6% |  | 
5 | CC(C)CCOc1ccccc1O [2a{5}, 2-(3-Methyl-butyloxy) phenol] | None |  |  |  |  | 22 ± 8% | -44 ± 26% | -37 ± 33% | 6 ± 6% | slightly agonistic | 
6 | C=CCOc1ccccc1O [2a{6}, 2-Allyloxy phenol] | None |  |  |  |  | -63 ± 62% | -33 ± 40% | -31 ± 71% | 16 ± 8% |  | 
7 | COc1cccc(O)c1 [2b{1}, 3-Methoxy phenol] | None |  |  |  |  | 6 ± 11% | 14 ± 22% | 49 ± 8% | 4 ± 7% |  | 
8 | CCOc1cccc(O)c1 [2b{2}, 3-Ethoxy phenol] | None |  |  |  |  | 4 ± 20% | 0% | 44 ± 18% | -3 ± 5% |  | 
9 | CCCOc1cccc(O)c1 [2b{3}, 3-Propoxy phenol] | None |  |  |  |  | -6 ± 14% | 36 ± 19% | 65 ± 14% | 8 ± 6% |  | 
10 | CCCCOc1cccc(O)c1 [2b{4}, 3-butoxyphenol] | None |  |  |  |  | -6 ± 18% | -20 ± 31% | -74 ± 71% | -1 ± 15% | short-term enhancements | 
11 | CC(C)CCOc1cccc(O)c1 [2b{5}, 3-(3-Methyl-butyloxy) phenol] | None |  |  |  |  | -87 ± 63% | -111 ± 78% | -9 ± 58% | 4 ± 7% |  | 
12 | C=CCOc1cccc(O)c1 [2b{6}] | None | 24 ± 23 (7) % | 28 ± 20 (7) % | 5 ± 32 (7) % | 1 ± 7 (7) % |  |  |  |  |  | 
13 | CCCCOc1ccc(O)cc1 [2c{4}, 4-Butoxy phenol] | None |  |  |  |  | 12 ± 37% | 38 ± 11% | -122 ± 84% | 26 ± 13% | short-term enhancements | 
14 | C=CCOc1ccc(O)cc1 [2c{6}, 4-Allyloxy phenol] | None |  |  |  |  | 19 ± 10% | 42 ± 8% | 46 ± 10% | 24 ± 8% |  | 
15 | CC(C)CCOc1ccccc1OCCC(C)C [3a{5,5}, 1,2-Di-(3-methyl-butyloxy) benzene] | None |  |  |  |  | -77 ± 58% | -55 ± 67% | -105 ± 81% | 0% |  | 
16 | C=CCOc1ccccc1OCC=C [3a{6,6}, 1,2-Diallyloxy benzene] | None |  |  |  |  | 32 ± 16% | 16 ± 24% | -27 ± 48% | 17 ± 28% |  | 
17 | COc1cccc(OC)c1 [3b{1,1}, 1,3-Dimethoxy benzene] | Trace |  |  |  |  | 25 ± 18% | 9 ± 40% | 44 ± 36% | 1 ± 8% |  | 
18 | C=CCOc1cccc(OC)c1 [3b{1,6}, 1-allyloxy-3-methoxybenzene] | None |  |  |  |  | -67 ± 61% | -107 ± 88% | -95 ± 106% | 14 ± 13% |  | 
19 | CCOc1cccc(OCC)c1 [3b{2,2}, 1,3-Diethoxy benzene] | Trace |  |  |  |  | -100 ± 51% | -12 ± 70% | 63 ± 65% | 39 ± 6% |  | 
20 | CCCOc1cccc(OCCC)c1 [3b{3,3}, 1,3-Dipropoxy benzene] | None |  |  |  |  | 36 ± 11% | 1 ± 26% | -2 ± 34% | 45 ± 12% |  | 
21 | C=CCOc1cccc(OCCC)c1 [3b{3,6}, 1-allyloxy-3-propoxybenzene] | None |  |  |  |  | -85 ± 30% | -85 ± 80% | -96 ± 98% | 48 ± 7% |  | most active long-term inhibitor
22 | CCCCOc1cccc(OCCCC)c1 [3b{4,4}, 1,3-Dibutoxy benzene] | None |  |  |  |  | 4 ± 45% | -72 ± 91% | -42 ± 93% | 8 ± 9% |  | 
23 | C=CCOc1cccc(OCCCC)c1 [3b{4,6}, 1-allyloxy-3-n-butoxybenzene] | None |  |  |  |  | -66 ± 43% | -101 ± 76% | 8 ± 46% | 27 ± 12% |  | 
24 | CC(C)CCOc1cccc(OCCC(C)C)c1 [3b{5,5}, 1,3-Di-(3-methyl-butyloxy) benzene] | None |  |  |  |  | 41 ± 13% | -38 ± 41% | -51 ± 51% | 9 ± 9% |  | 
25 | C=CCOc1cccc(OCCC(C)C)c1 [3b{5,6}, 1-allyloxy-3-isopentoxybenzene] | None |  |  |  |  | -69 ± 34% | -85 ± 65% | -99 ± 88% | 15 ± 8% |  | 
